According to patent US9907790B2, “Solid forms of an ASK1 inhibitor” (Gilead Sciences, Inc., priority 2014, dated 2018):

Assays:
[1] = Competition slurries between crystalline forms; assay type: physicochemical; details: ethanol, agitating overnight
[2] = Form change on heating, drying or exposure to ambient conditions; assay type: physicochemical; details: ambient temperature and humidity / storage at ambient conditions
Text: Form V has only been truly isolated by growth of single crystals.
Isolated solids were dried with filter paper to remove residual solvents and analyzed by DSC, TGA and KF. […] (FIG. 45).
The sample was stirred for more than two months before being placed into storage without agitation and at ambient conditions. […] The material was collected by vacuum filtration and dried under ambient conditions. […] (FIG. 48).

For `Cc1cc(F)c(C(=O)Nc2cccc(-c3nncn3C(C)C)n2)cc1-n1cnc(C2CC2)c1` [Compound I Form VII, 5-(4-cyclopropyl-1H-imidazol-1-yl)-N-(6-(4-isopropyl-4H-1,2,4-triazol-3-yl)pyridin-2-yl)-2-fluoro-4-methylbenzamide], the “outcome of competitive slurry with Compound I Form I” value [1] was “full conversion of Compound I Form VII to Compound I Form I” and the “form change at ambient conditions” value [2] was “rapidly converts back to Compound I Form IV”.
